Consider eleven compounds from patent US20240116985A1, “STAPLED PEPTIDES AND METHODS THEREOF” (priority 2020, published 2024).

This assay addresses T1, full-length beta-Catenin (Uniprot ID P35222) (Homo sapiens, UniProt P35222).
T1 construct: 10 nM full-length beta-Catenin (Uniprot ID P35222)
T1 sequence (P35222 1-781): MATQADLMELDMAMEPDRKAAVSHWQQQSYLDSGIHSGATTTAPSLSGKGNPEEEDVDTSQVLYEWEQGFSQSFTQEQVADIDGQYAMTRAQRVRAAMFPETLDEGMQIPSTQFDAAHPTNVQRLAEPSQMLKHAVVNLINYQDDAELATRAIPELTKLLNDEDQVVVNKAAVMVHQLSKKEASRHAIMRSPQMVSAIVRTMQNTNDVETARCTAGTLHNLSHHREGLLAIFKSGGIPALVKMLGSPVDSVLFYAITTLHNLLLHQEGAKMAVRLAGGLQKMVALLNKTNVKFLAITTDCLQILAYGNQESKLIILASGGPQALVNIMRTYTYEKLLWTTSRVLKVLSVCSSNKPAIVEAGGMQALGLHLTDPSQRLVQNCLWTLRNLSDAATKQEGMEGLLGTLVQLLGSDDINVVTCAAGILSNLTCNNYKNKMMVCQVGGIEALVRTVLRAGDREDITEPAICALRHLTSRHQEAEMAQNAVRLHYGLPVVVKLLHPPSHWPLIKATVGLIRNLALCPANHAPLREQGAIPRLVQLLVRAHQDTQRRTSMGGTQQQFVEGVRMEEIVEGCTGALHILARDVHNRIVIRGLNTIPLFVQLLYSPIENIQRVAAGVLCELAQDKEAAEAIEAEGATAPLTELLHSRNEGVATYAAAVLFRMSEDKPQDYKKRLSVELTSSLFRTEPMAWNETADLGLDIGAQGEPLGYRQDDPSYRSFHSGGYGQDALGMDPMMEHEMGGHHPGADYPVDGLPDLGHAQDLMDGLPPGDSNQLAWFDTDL
Put plainly: Fluorescence polarization IC50 (beta-catenin / 5FAM-TCF4 10-53 competition). Format: binding. The conditions noted are these: fluorescence polarization; read-out: beta-Catenin FP IC50. On the technique in general: Fluorescence polarisation rises when a labelled molecule tumbles more slowly, as on binding a larger partner.

`CC(C)C[C@H](NC(=O)[C@]12CCN(C1)C(=O)OCCCCCCCCC1(CCCCCCC(=O)N3CCC[C@@]3(C)C(=O)N[C@@H](CC(=O)O)C(=O)N1)C(=O)N[C@@H](C)C(=O)N[C@@H](CC(=O)O)C(=O)N[C@@H](CC(=O)O)C(=O)N[C@@H](C)C(=O)N[C@@H](C)C(=O)N[C@@H](Cc1ccccc1)C(=O)N2)C(=O)N[C@@H](Cc1ccsc1)C(=O)N[C@@H](Cc1csc2ccccc12)C(=O)N[C@@H](CCC(N)=O)C(N)=O` (stereo partly drawn) [I-2608, 3butenyl-MePro-Asp-B5-Ala-Asp-Asp-Ala-Ala-Phe-PyrS2-Leu-3Thi-BztA-Gln-NH2]: the IC50 (usually the concentration that gives 50% inhibition) is 251 nM.

As to `CC(=O)N1CCC[C@]12CC=CCCCC1(CCCC=CCCCOC(=O)N3CC(C(=O)N[C@@H](Cc4ccccc4C(F)(F)F)C(=O)N[C@@H](Cc4csc5ccccc45)C(=O)N[C@@H](CCC(N)=O)C(N)=O)(C3)NC(=O)[C@H](CC(C)C)NC(=O)[C@H](Cc3ccccc3)NC(=O)[C@H](C)NC(=O)[C@H](C)NC(=O)[C@H](Cc3cccc(C(=O)O)c3)NC(=O)[C@H](CC(=O)O)NC1=O)NC(=O)[C@H](CC(C)(C)C)NC(=O)[C@H](CC(=O)O)NC2=O` (stereo partly drawn) [I-2610, Ac-PL3-Asp-Npg-B5-Asp-3COOHF-Ala-Ala-Phe-Leu-Az2-2F3MeF-BztA-Gln-NH2], the IC50 stood at 215 nM.

Consider `CC(=O)N1CCC[C@]12CC=CCCCC1(CCCC=CCCCCOC(=O)N3CC(C(=O)N[C@@H](Cc4ccccc4C(F)(F)F)C(=O)N[C@@H](Cc4csc5ccccc45)C(=O)N[C@@H](CCC(N)=O)C(N)=O)(C3)NC(=O)[C@H](CC(C)C)NC(=O)[C@H](Cc3ccccc3)NC(=O)[C@H](C)NC(=O)[C@H](C)NC(=O)[C@H](Cc3cccc(C(=O)O)c3)NC(=O)[C@H](CC(=O)O)NC1=O)NC(=O)[C@H](CC(C)(C)C)NC(=O)[C@H](CC(=O)O)NC2=O` (stereo partly drawn) [I-2611, Ac-PL3-Asp-Npg-B5-Asp-3COOHF-Ala-Ala-Phe-Leu-Az3-2F3MeF-BztA-Gln-NH2], for which the IC50 came to 188 nM.

`CC(=O)N1CCC[C@]12CC=CCCCC1(CCCC=CCCCCOC(=O)N3CC(C(=O)N[C@@H](Cc4ccsc4)C(=O)N[C@@H](Cc4csc5ccccc45)C(=O)N[C@@H](CCC(N)=O)C(N)=O)(C3)NC(=O)[C@H](CC(C)C)NC(=O)[C@H](Cc3ccccc3)NC(=O)[C@H](C)NC(=O)[C@H](C)NC(=O)[C@H](Cc3cccc(C(=O)O)c3)NC(=O)[C@H](CC(=O)O)NC1=O)NC(=O)[C@H](CC(C)(C)C)NC(=O)[C@H](CC(=O)O)NC2=O` (stereo partly drawn) [I-2612, Ac-PL3-Asp-Npg-B5-Asp-3COOHF-Ala-Ala-Phe-Leu-Az3-3Thi-BztA-Gln-NH2]: the 50% inhibitory concentration (IC50) is 85 nM.

As to `CC(=O)N1CCC[C@]12CC=CCCCC1(CCCC=CCCCOC(=O)N3CC(C(=O)N[C@@H](Cc4ccccc4C(F)(F)F)C(=O)N[C@@H](Cc4csc5ccccc45)C(=O)N[C@@H](CCC(N)=O)C(N)=O)(C3)NC(=O)[C@H](CC(C)C)NC(=O)[C@H](Cc3ccccc3)NC(=O)[C@H](C)NC(=O)C(C)(C)NC(=O)[C@H](Cc3cccc(C(=O)O)c3)NC(=O)[C@H](CC(=O)O)NC1=O)NC(=O)[C@H](CC(C)(C)C)NC(=O)[C@H](CC(=O)O)NC2=O` (stereo partly drawn) [I-2613, Ac-PL3-Asp-Npg-B5-Asp-3COOHF-Aib-Ala-Phe-Leu-Az2-2F3MeF-BztA-Gln-NH2], the IC50 turned out to be 183 nM.

In the case of `CC(=O)N1CCC[C@]12CC=CCCCC1(CCCC=CCCCOC(=O)N3CC(C(=O)N[C@@H](Cc4ccccc4C(F)(F)F)C(=O)N[C@@H](Cc4csc5ccccc45)C(=O)N[C@@H](CCC(N)=O)C(N)=O)(C3)NC(=O)[C@H](CC(C)C)NC(=O)[C@H](Cc3ccccc3)NC(=O)[C@H](C)NC(=O)C(C)(C)NC(=O)[C@H](Cc3cccc(C(=O)O)c3)NC(=O)[C@H](CC(=O)O)NC1=O)NC(=O)[C@H](CC(C)(C)C)NC(=O)[C@H](CC(=O)O)NC2=O` (stereo partly drawn) [I-2614, Ac-PL3-Asp-Npg-B5-Asp-3COOHF-Aib-Ala-Phe-Leu-Az2-2F3MeF-BztA-Gln-NH2], the 50% inhibitory concentration (IC50) amounted to 97 nM.

Regarding `CC(=O)N1CCC[C@]12CC=CCCCC1(CCCC=CCCCCOC(=O)N3CC(C(=O)N[C@@H](Cc4ccccc4C(F)(F)F)C(=O)N[C@@H](Cc4csc5ccccc45)C(=O)N[C@@H](CCC(N)=O)C(N)=O)(C3)NC(=O)[C@H](CC(C)C)NC(=O)[C@H](Cc3ccccc3)NC(=O)[C@H](C)NC(=O)C(C)(C)NC(=O)[C@H](Cc3cccc(C(=O)O)c3)NC(=O)[C@H](CC(=O)O)NC1=O)NC(=O)[C@H](CC(C)(C)C)NC(=O)[C@H](CC(=O)O)NC2=O` (stereo partly drawn) [I-2615, Ac-PL3-Asp-Npg-B5-Asp-3COOHF-Aib-Ala-Phe-Leu-Az3-2F3MeF-BztA-Gln-NH2], the IC50 was 115 nM.

Consider `CC(=O)N1CCC[C@]12CC=CCCCC1(CCCC=CCCCCOC(=O)N3CC(C(=O)N[C@@H](Cc4ccccc4C(F)(F)F)C(=O)N[C@@H](Cc4csc5ccccc45)C(=O)N[C@@H](CCC(N)=O)C(N)=O)(C3)NC(=O)[C@H](CC(C)C)NC(=O)[C@H](Cc3ccccc3)NC(=O)[C@H](C)NC(=O)C(C)(C)NC(=O)[C@H](Cc3cccc(C(=O)O)c3)NC(=O)[C@H](CC(=O)O)NC1=O)NC(=O)[C@H](CC(C)(C)C)NC(=O)[C@H](CC(=O)O)NC2=O` (stereo partly drawn) [I-2616, Ac-PL3-Asp-Npg-B5-Asp-3COOHF-Aib-Ala-Phe-Leu-Az3-2F3MeF-BztA-Gln-NH2], for which the IC50 was found to be 175 nM.

For the compound `CC(=O)N1CCC[C@]12CC=CCCCC1(CCCC=CCCCOC(=O)N3CC(C(=O)N[C@@H](Cc4ccsc4)C(=O)N[C@@H](Cc4csc5ccccc45)C(=O)N[C@@H](CCC(N)=O)C(N)=O)(C3)NC(=O)[C@H](CC(C)C)NC(=O)[C@H](Cc3ccccc3)NC(=O)[C@H](C)NC(=O)C(C)(C)NC(=O)[C@H](Cc3cccc(C(=O)O)c3)NC(=O)[C@H](CC(=O)O)NC1=O)NC(=O)[C@H](CC(C)(C)C)NC(=O)[C@H](CC(=O)O)NC2=O` (stereo partly drawn) [I-2617, Ac-PL3-Asp-Npg-B5-Asp-3COOHF-Aib-Ala-Phe-Leu-Az2-3Thi-BztA-Gln-NH2], the IC50 is 130 nM.

For the compound `CC(=O)N1CCC[C@]12CC=CCCCC1(CCCC=CCCCCOC(=O)N3CC(C(=O)N[C@@H](Cc4ccsc4)C(=O)N[C@@H](Cc4csc5ccccc45)C(=O)N[C@@H](CCC(N)=O)C(N)=O)(C3)NC(=O)[C@H](CC(C)C)NC(=O)[C@H](Cc3ccccc3)NC(=O)[C@H](C)NC(=O)C(C)(C)NC(=O)[C@H](Cc3cccc(C(=O)O)c3)NC(=O)[C@H](CC(=O)O)NC1=O)NC(=O)[C@H](CC(C)(C)C)NC(=O)[C@H](CC(=O)O)NC2=O` (stereo partly drawn) [I-2618, Ac-PL3-Asp-Npg-B5-Asp-3COOHF-Aib-Ala-Phe-Leu-Az3-3Thi-BztA-Gln-NH2], the 50% inhibitory concentration (IC50) was determined as 77 nM.

Turning to `CC(=O)N1CCC[C@]12CC=CCCCC1(CCCC=CCCCCOC(=O)N3CC(C(=O)N[C@@H](Cc4ccsc4)C(=O)N[C@@H](Cc4csc5ccccc45)C(=O)N[C@@H](CCC(N)=O)C(N)=O)(C3)NC(=O)[C@H](CC(C)C)NC(=O)[C@H](Cc3ccccc3)NC(=O)[C@H](C)NC(=O)C(C)(C)NC(=O)[C@H](Cc3cccc(C(=O)O)c3)NC(=O)[C@H](CC(=O)O)NC1=O)NC(=O)[C@H](CC(C)(C)C)NC(=O)[C@H](CC(=O)O)NC2=O` (stereo partly drawn) [I-2619, Ac-PL3-Asp-Npg-B5-Asp-3COOHF-Aib-Ala-Phe-Leu-Az3-3Thi-BztA-Gln-NH2], the concentration for half-maximal inhibition (IC50) amounted to 36 nM.
